Measured values published in patent US9757375B2, “Compounds that inhibit human DNA ligases and methods of treating cancer” (University of Maryland, Baltimore, priority 2007, dated 2017).
Where two headings read alike, the source gives them in different places. Marks after values point to notes of the source that are not given here.

How the values were obtained:
[1] = tested on: Human DNA ligases I, III and IV and T4 DNA ligase; experiment: Step 3 of the ligation reaction: ligation of preadenylated nick by non-adenylated ligase; format: biochemical; conditions: for Mechanism: ligation step inhibited (3rd step): Table 5A
Method: To analyze step 3 of the ligation reaction, an adenylated labeled version of the 18-mer was prepared as described (24). The DNA substrate containing a preadenylated nick (0.5 pmol) and hLigI (0.05 pmol), hLigIIIβ (0.05 pmol), hLigIV/XRCC4 (0.1 pmol), or T4 DNA ligase (0.05 pmol) were incubated in ligation buffer without ATP, either in the presence or absence of the ligase inhibitors (100 μmol/L). Reactions were stopped by the addition of an equal volume of gel loading dye (95% formamide, 0.05% bromophenol blue, and 0.05% xylene cyanol). After heating at 95° C. for 5 min, DNA was separated by denaturing polyacrylamide gel electrophoresis. Labeled oligonucleotides were detected and quantitated in the dried gel by phosphorImager analysis (Molecular Dynamics).
Since the final two steps of the ligation reaction involve interactions with DNA, we examined the effects of the ligase inhibitors on the second (FIG. 3B) (The labeled ligase-adenylate form of human DNA ligases I, III and IV and T4 DNA ligase were incubated with a linear DNA substrate containing a single non-ligatable nick in the absence or presence of compounds 67, 82 and 189 (100 μM). After separation by denaturing gel electrophoresis, the labeled DNA-AMP complex was detected by phosphorimaging (26)) and third steps (FIG. 3C) of the ligation reaction using established assays (25,26) (Non-adenylated human DNA ligases I, III and IV and T4 DNA ligase were incubated with labeled DNA-AMP in the absence or presence of compounds 67, 82 and 189 (100 μM). After separation by denaturing gel electrophoresis, labeled ligated DNA was detected by phosphorimaging (25)).

[2] = tested on: Human DNA ligases I, III and IV and T4 DNA ligase; experiment: Step 1 of the ligation reaction: ligase-AMP complex formation with [α32P] ATP; format: biochemical; conditions: for inhibition of the first step of the ligation reaction (ligase-AMP formation): 100 μM, FIG. 3A
Method: Human DNA ligases I, III and IV and T4 DNA ligase were incubated with [α^32P] ATP in the absence or presence of compounds 67, 82 and 189 (100 μM). After separation by SDS-PAGE, the labeled ligase-AMP complex was detected by phosphorimaging.

[3] = tested on: HCT116 and MCF10A cells; experiment: Cell proliferation screen, result stated for one or both cell lines; format: cell-based; conditions: Homo sapiens, read-out: IC50 of inhibition of proliferation
[4] = tested on: MCF10A cells; experiment: MTT cell growth assay; format: cell-based, human; conditions: for IC50: Homo sapiens, MCF-10A
Summary of the method: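 Seeded at 300 cells/well and allowed to adhere overnight, then serial compound dilutions in medium added for 5 days. MTT added for a further 4 h, formazan dissolved in isopropanol, and absorbance read at 560 nm.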

[5] = tested on: HCT116 cells; experiment: Screen for potentiation of DNA damaging agents (MMS, camptothecin, cis-platinum, 3 aminobenzamide, ionizing radiation); format: cell-based, human; conditions: for MMS: Ratios of IC50 HCT116: compound alone vs combination with MMS (100 μM); for MMS: Ratios of IC50 HCT116 / IC50 ratios of non- and 3-AB treated cells HCT116: 1 = no sensitization; for IC50 ratios of non- and 3-AB treated cells HCT116: compound alone vs combination with 3-AB (2 mM)
Source text: The 192 human DNA ligase inhibitors were screened in parallel for effects on proliferation and the ability to potentiate the effects of several DNA damaging agents using two cell human lines, a colon cancer line HCT116 and a normal breast epithelial cell line MCF10A using a Biomek FX Laboratory Automation Workstation as described (23). The DNA damaging agents used, methyl methanesulfonate (MMS), camptothecin, cis-platinum, 3 aminobenzamide and ionizing radiation, are representatives of classes of agents used to treat cancer. Briefly, HCT116 and MCF10A cells were plated in 96 well plates such that the cultures were about 80% confluent after 5 days incubation. Compounds were added to the cultures at either 15 μM or 50 μM 1 day after plating. After incubation for 3 days, cell lysed in a solution containing 1.2% Igepal CA-630 and SYBR green that stains DNA (1:1000, Molecular Probes, Eugene, Oreg.). Subsequently, fluorescence was measured per well. The studies with DNA damaging agents were performed as follows. […] For ionizing radiation, cells were pre-incubated with the compounds at 50 μM for 1 hour prior to exposure to 2 gray of ionizing radiation. Cultures were incubated for 3 days and then treated as above.

[6] = cell growth, compound alone, read-out: IC50 (μM) MCF10A
[7] = sections 'high concentrations (~50 μM)' and 'active in vitro that decreased cell growth', same figures given in μM elsewhere in Table 6, read-out: IC50 MCF10A (head without unit)

Row | SMILES | Mechanism: ligation step inhibited (3rd step) [1] [rd step] | inhibition of the first step of the ligation reaction (ligase-AMP formation) [2] | IC50 [3] [µM] | IC50 [4, 6] [µM] | IC50 [4, 7] [µM] | MMS: Ratios of IC50 HCT116 [5] | further results
1 | O=c1[nH]ncc(N/N=C\c2ccc(O)c([N+](=O)[O-])c2)c1Cl [Compound 82] | 3 | did not inhibit |  |  |  |  | inhibition of step 3 of the ligation reaction ([1]; 100 μM, FIG. 3C): inhibit step 3
2 | O=C(Cn1cnc([N+](=O)[O-])n1)N/N=C/c1ccc(O)cc1O [Compound 151] |  |  | < 20 | 6 | 6 | 1.7 | Radiosensitizers: IC50 ratios HCT116 ([5]; ionizing radiation): 2
3 | O=C(c1ccc(O)cc1)c1ccccc1O [Compound 200] |  |  |  | ~5 | 10 to 150 | ID (1) | IC50 ratios of non- and 3-AB treated cells HCT116 [5]: ID (1)
4 | Nc1nc(S)nc(O)c1/N=C/c1ccccc1 [Compound 189] | 3 | did not inhibit |  |  |  |  | 
5 | O=C1Nc2ccccc2Oc2cc([N+](=O)[O-])cc([N+](=O)[O-])c21 [Compound 180] |  |  | < 20 | 3 | 3 |  | 
6 | Cc1oc(C(=O)O)cc1CSCc1cc(C(=O)O)c(C)o1 [Compound 197] | 3 |  |  |  |  |  | 
7 | O=C(O)CSc1cc(Cl)c2nonc2c1[N+](=O)[O-] [Compound 64] |  |  |  | 50 | 50 | 2** | potentiation of the growth inhibitory effect of 3 aminobenzamide ([4]; MCF10A cells, 3 aminobenzamide 2 mM, 5 days, MTT, FIG. 5B): markedly potentiates; Mechanism: ligation step inhibited (1st step) ([2]; Table 5A): 1st step
8 | Cc1c(Br)cc(NCC(=O)N/N=C\c2cc([N+](=O)[O-])ccc2O)cc1Br [Compound 67] | 3 | did not inhibit | < 20 | 4 | 4 | 1.4 | IC50 ratios of non- and 3-AB treated cells HCT116 [5]: 1
